Data set [1] relates to lipid bodies in algal cells. The experiment in a line: BODIPY 505/515 vital staining of lipid bodies in live algal cells (fluorescence microscopy, cell sorter). In kind it is cell-based, Alga X. An excerpt: When added to a culture of algal cells, 1-10 micro-liters of BODIPY 505/515 stains intracellular lipid bodies within minutes. (Preparation of a BODIPY 505/515 stock solution is described below in EXAMPLE 30.) BODIPY 505/515 accumulates in lipidic compartments by a diffusion-trap mechanism. The dye has a high oil/water partition coefficient, which allows it to cross cell membranes and organelle membranes easily. When viewed under a fluorescent microscope, the background fluorescence of BODIPY 505/515 in the bath solution is slightly visible. Despite the slight background fluorescence, lipid bodies within live algal cells are intensely labeled and can be easily seen using fluorescein-type optics or confocal microscopy (see FIG. 8). […] This fluorescence arises from endogenous carotenoid and chlorophyll molecules located within the chloroplasts.
Fluorescently labeled cells with large lipid bodies can be isolated using the fluorescent cell sorter and used to successfully seed new algal cultures. Fluorescently labeled cells have a signal/noise ratio of 50-200 above background fluorescence, depending on the BODIPY 505/515 dye concentration used. […] BODIPY 505/515 can be used to characterize the diurnal rhythm of lipid body size within algal cells or decline in lipid quantity per cell as a culture moves from one life history phase to another. […]

Data set [2] concerns Single-cell and filamentous species of algae. Kind of data set: Algal growth in the continuous presence of the dye. In kind it is cell-based. The settings on record: micromolar concentrations, for days (data not shown).
For data set [3], the system named is Alga X. As to the method: The mother culture is generally about one week old and has a culture density of about 2×10̂6.
Two experiments were run using 0, 8, 16, 32, and 64 mM NaCl salt concentrations in the Alga X culture medium. Alga cells were collected for lipid analysis at 0, 3, 6, and 9 days for each salt concentration.
The starting culture densities were 5.00E+03 cells/ml.
The starting culture densities were 1.00E+05 cells/ml.
Alga X cell cultures were subjected to agitation between 0 and 100 rpm.
A volume of about 37.6 ml of original stock was added to each starting flask, with the balance being medium to bring the cell cultures to a concentration of about 1.00E+06.
The original stock culture was maintained in CORE1 (distilled water based medium), plus SEM, with a concentration of about 3.19E+06 cells/ml. Volumes of 34.5 ml of original stock were added to each starting flask, with the balance being medium to bring the cell cultures to a concentration of about 1.00E+05.
The experimental AMPSO culture was maintained in a medium of Clear (human waste water), SEM, and 8 mM AMPSO pH buffer. The AMPSO plus NaHCO3 culture was maintained in a medium of Clear (human waste water), SEM, 8 mM AMPSO pH buffer, and 2 mM NaHCO3.

For data set [4], the system named is Alga X. Kind of data set: Fatty acid content and fatty acid profile of Alga X cells grown in test media (GC/MS, FAME ionization detection). The data set is classed as cell-based, Chrysochromulina sp.

Here are results for 7 molecules from patent US20110207820A1, “NOVEL CHRYSOCHROMULINA SPECIES, METHODS AND MEDIA THEREFOR, AND PRODUCTS DERIVED THEREFROM” (UNIVERSITY OF WASHINGTON, priority 2008, published 2011).

Read-outs that look alike come from different tables or passages of the source.

Turning to `CC1=CC(C)=[N+]2C1=Cc1c(C)cc(C)n1[B-]2(F)F` [BODIPY 505/515, 4,4-difluoro-1,3,5,7-tetramethyl-4-bora-3a,4a-diaza-s-indacene], the “time after dye addition until fluorescently-labeled lipid bodies are visible” value in data set [1] (1 micro-molar BODIPY 505/515, 0.05% DMSO) was no more than 5 min. In addition, the “signal/noise ratio of labeled cells above background fluorescence” value in data set [1] (depending on dye concentration) is 50-200. In addition, the “growth of algae in continuous presence of the dye” value in data set [2] is “continue to grow well”.

For the molecule `O=P(O)(O)OC(CO)CO` [BGlycerolphosphate, beta-glycerophosphate], the cells/mL amounted to 6.98E+05 cells/mL in the data set on Alga X [3] (B-glycerolphosphate 6.45 uM (control amount), day 2); 1.57E+06 cells/mL in the data set with Alga X [3] (B-glycerolphosphate 6.45 uM (control amount), day 3); 2.75E+06 cells/mL in the data set on Alga X [3] (B-glycerolphosphate 6.45 uM (control amount), day 4); 3.54E+06 cells/mL in the data set on Alga X [3] (B-glycerolphosphate 6.45 uM (control amount), day 6); 4.10E+06 cells/mL with Alga X [3] (B-glycerolphosphate 6.45 uM (control amount), day 8); 4.53E+06 cells/mL in the data set on Alga X [3] (B-glycerolphosphate 6.45 uM (control amount), day 9).

Regarding nitrogen, the lipid per cell entry in the data set with Alga X [4] (increased nitrogen in the media) is on record as “little affected”.

With `CC(=O)O` [acetate], the cells/mL was determined as 1.0E+05 cells/mL with Alga X [3] (acetate 100 uM, day 0); 1.54E+06 cells/mL in the data set with Alga X [3] (acetate 100 uM, day 3); 3.27E+06 cells/mL with Alga X [3] (acetate 100 uM, day 6); 4.87E+06 cells/mL in the data set on Alga X [3] (acetate 100 uM, day 9); 1.0E+05 cells/mL in the data set with Alga X [3] (acetate 200 uM, day 0); 1.69E+06 cells/mL in the data set with Alga X [3] (acetate 200 uM, day 3). In addition, the cells/mL is on record as 4.02E+06 cells/mL in the data set on Alga X [3] (acetate 200 uM, day 6); 5.02E+06 cells/mL in the data set with Alga X [3] (acetate 200 uM, day 9); 1.0E+05 cells/mL in the data set on Alga X [3] (acetate 400 uM, day 0); 1.67E+06 cells/mL in the data set with Alga X [3] (acetate 400 uM, day 3); 4.44E+06 cells/mL in the data set with Alga X [3] (acetate 400 uM, day 6); 4.70E+06 cells/mL in the data set with Alga X [3] (acetate 400 uM, day 9).

As to `O=P([O-])(O)O.[K+]` [KH2PO4], in the data set with Alga X [4] (increasing KH2PO4, by day 6), the fatty acid productivity entry was “increases slightly”.

`[Cl-].[Na+]` [NaCl]: in the data set on Alga X [3], the “level of NaCl at which Alga X exhibits maximum growth” value came to 8.0 mM and the “survival of Alga X cells” value was “did not survive”. Moreover, the cell growth entry in the data set on Alga X [3] (32 mM salt content) is “depressed”.

Consider `O=C([O-])O.[Na+]` [sodium bicarbonate], for which, in the data set with Alga X [3] (2 mM, 4 mM or 6 mM, with AMPSO pH buffer), the cell culture growth entry is “further enhances cell culture growth”.
